Test results reported in patent US12059420B2 (BRISTOL-MYERS SQUIBB COMPANY, priority 2018, dated 2024).

biological target: T1, human IDO1 (Homo sapiens, UniProt P14902); test: IDO inhibition assay in HEK293 cells stably expressing human IDO1 (kynurenine production, Ehrlich reagent, absorbance 490 nm); assay type: cell-based; settings: 20 hours incubation with compound, 500 nM reference standard = 100% inhibition, read-out: IDO1 HEK Human IC50
T1 construct: expressed in transfected cells
Procedure, shortened: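 HEK293 clones stably expressing human IDO1 (10,000 cells/well, phenol red-free RPMI, 10% FBS) were treated with compound for 20 hours at 37° C. After 0.2% TCA and 30 min at 50° C., kynurenine was read with Ehrlich reagent at 490 nm. IC50 was normalised to DMSO (0%) and 500 nM reference standard (100%).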

T1 sequence (P14902 whole entry): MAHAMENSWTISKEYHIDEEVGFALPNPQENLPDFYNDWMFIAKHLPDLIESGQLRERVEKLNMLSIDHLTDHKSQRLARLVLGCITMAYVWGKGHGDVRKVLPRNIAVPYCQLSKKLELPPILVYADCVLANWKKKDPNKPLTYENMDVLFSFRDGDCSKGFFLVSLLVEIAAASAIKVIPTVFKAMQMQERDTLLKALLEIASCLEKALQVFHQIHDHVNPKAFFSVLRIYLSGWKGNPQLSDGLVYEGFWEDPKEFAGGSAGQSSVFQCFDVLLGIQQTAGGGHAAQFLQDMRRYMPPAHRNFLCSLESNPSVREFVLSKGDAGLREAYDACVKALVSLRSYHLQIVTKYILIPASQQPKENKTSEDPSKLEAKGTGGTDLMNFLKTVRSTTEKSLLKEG

IC50 | Compound
146 nM | Cc1ccc(CC(=O)Nc2cc(-c3ccccc3-c3nnn[nH]3)nc(N(Cc3ncccn3)CC(C)C)n2)cc1 [Example 92, N-(6-(2-(1H-tetrazol-5-yl)phenyl)-2-(isobutyl(pyrimidin-2-ylmethyl)amino)pyrimidin-4-yl)-2-(p-tolyl)acetamide]
3170 nM | Cc1ccc(NC(=O)Nc2cc(-c3ccccc3-c3nnn[nH]3)nc(N3CCc4ccccc4C3)n2)cc1 [Example 93, 1-(6-(2-(1H-tetrazol-5-yl)phenyl)-2-(3,4-dihydroisoquinolin-2(1H)-yl)pyrimidin-4-yl)-3-(p-tolyl)urea]
260 nM | Cc1ccc(CC(=O)Nc2cc(-c3ccccc3-c3nnn[nH]3)nc(N3CCc4ccccc4C3)n2)cc1 [Example 94, N-(6-(2-(1H-tetrazol-5-yl)phenyl)-2-(3,4-dihydroisoquinolin-2(1H)-yl)pyrimidin-4-yl)-2-(p-tolyl)acetamide]
1390 nM | CC(C)c1ccc(CC(=O)Nc2cc(-c3ccccc3-c3nnn[nH]3)nc(N3CCc4ccccc4C3)n2)cc1 [Example 95, N-(6-(2-(1H-tetrazol-5-yl)phenyl)-2-(3,4-dihydroisoquinolin-2(1H)-yl)pyrimidin-4-yl)-2-(4-isopropylphenyl)acetamide]
1150 nM | Cc1ccc(CC(=O)Nc2cc(-c3ccccc3-c3nnn[nH]3)nc(N3CCN(Cc4ccccc4)C(=O)C3)n2)cc1 [Example 97, N-(6-(2-(1H-tetrazol-5-yl)phenyl)-2-(4-benzyl-3-oxopiperazin-1-yl)pyrimidin-4-yl)-2-(p-tolyl)acetamide]
846 nM | Cc1ccc(NC(=O)Nc2cc(-c3ccccc3-c3nnn[nH]3)nc(N3C[C@@H]4C[C@H]3CN4Cc3ccccc3)n2)cc1 [Example 98, 1-(6-(2-(1H-tetrazol-5-yl)phenyl)-2-((1 S,4S)-5-benzyl-2,5-diazabicyclo [2.2.1]heptan-2-yl)pyrimidin-4-yl)-3-(p-tolyl)urea]
3660 nM | CCN(CCC(F)(F)F)c1nc(NC(=O)Nc2ccc(C)cc2)cc(-c2ccccc2-c2nnn[nH]2)n1 [Example 99, 1-(6-(2-(1H-tetrazol-5-yl)phenyl)-2-(ethyl(3,3,3-trifluoropropyl)amino)pyrimidin-4-yl)-3-(p-tolyl)urea]
127 nM | CCN(CCC(F)(F)F)c1nc(NC(=O)Cc2ccc(C)cc2)cc(-c2ccccc2-c2nnn[nH]2)n1 [Example 100, N-(6-(2-(1H-tetrazol-5-yl)phenyl)-2-(ethyl(3,3,3-trifluoropropyl)amino)pyrimidin-4-yl)-2-(p-tolyl)acetamide]
514 nM | CCN(CCC(F)(F)F)c1cc(NC(=O)Cc2ccc(C)cc2)cc(-c2ccccc2-c2nnn[nH]2)n1 [Example 101, N-(2-(2-(1H-tetrazol-5-yl)phenyl)-6-(ethyl(3,3,3-trifluoropropyl)amino)pyridin-4-yl)-2-(p-tolyl)acetamide]
8.6 nM | CC(C)CN(Cc1ccccc1)c1nc(Nc2nc3ccccc3o2)cc(-c2ccccc2-c2nnn[nH]2)n1 [Example 102, 6-(2-(1H-tetrazol-5-yl)phenyl)-N4-(benzo [d]oxazol-2-yl)-N2-benzyl-N2-isobutylpyrimidine-2,4-diamine]
4120 nM | CCCN(c1cc(NC(=O)Nc2ccc(C)cc2)cc(-c2ccccc2-c2nnn[nH]2)n1)C1CCOCC1 [Example 109, 1-(2-(2-(1H-tetrazol-5-yl)phenyl)-6-(propyl(tetrahydro-2H-pyran-4-yl)amino)pyridin-4-yl)-3-(p-tolyl)urea]
6000 nM | COCCN(c1cc(NC(=O)Nc2ccc(F)cc2)cc(-c2ccccc2-c2nnn[nH]2)n1)C1CCC(F)(F)CC1 [Example 114, 1-(2-(2-(1H-tetrazol-5-yl)phenyl)-6-((4,4-difluorocyclohexyl)(2-methoxyethyl)amino)pyridin-4-yl)-3-(4-fluorophenyl)urea]
2010 nM | CCCN(c1cc(NC(=O)Nc2ccc(C)cc2)cc(-c2ccccc2-c2nnn[nH]2)n1)C1CCC(C)(C)CC1 [Example 119, 1-(2-(2-(1H-tetrazol-5-yl)phenyl)-6-((4,4-dimethylcyclohexyl) (propyl)amino)pyridin-4-yl)-3-(p-tolyl)urea]
1110 nM | Cc1ccc(CC(=O)Nc2cc(-c3ccccc3-c3nnn[nH]3)nc(N3CC(C)OC(C)C3)c2)cc1 (stereo not drawn) [Example 125, N-(2-(2-(1H-tetrazol-5-yl)phenyl)-6-(2,6-dimethylmorpholino)pyridin-4-yl)-2-(p-tolyl)acetamide]
2000 nM | Cc1ccc(CC(=O)Nc2cc(-c3ccccc3-c3nnn[nH]3)nc(N3CCCC(C)C3)c2)cc1 (stereo not drawn) [Example 126, N-(2-(2-(1H-tetrazol-5-yl)phenyl)-6-(3-methylpiperidin-1-yl)pyridin-4-yl)-2-(p-tolyl)acetamide]
1050 nM | Cc1ccc(CC(=O)Nc2cc(-c3ccccc3-c3nnn[nH]3)nc(N3CCCCCC3)c2)cc1 [Example 127, N-(2-(2-(1H-tetrazol-5-yl)phenyl)-6-(azepan-1-yl)pyridin-4-yl)-2-(p-tolyl)acetamide]
1800 nM | Cc1ccc(CC(=O)Nc2cc(-c3ccccc3-c3nnn[nH]3)nc(N3CCCC3C)c2)cc1 (stereo not drawn) [Example 128, N-(2-(2-(1H-tetrazol-5-yl)phenyl)-6-(2-methylpyrrolidin-1-yl)pyridin-4-yl)-2-(p-tolyl)acetamide]

IC50 | Compound
1250 nM | COc1ccccc1N1CCN(c2cc(NC(=O)Cc3ccc(C)cc3)cc(-c3ccccc3-c3nnn[nH]3)n2)CC1 [Example 129, N-(2-(2-(1H-tetrazol-5-yl)phenyl)-6-(4-(2-methoxyphenyl)piperazin-1-yl)pyridin-4-yl)-2-(p-tolyl)acetamide]
1600 nM | Cc1ccc(CC(=O)Nc2cc(-c3ccccc3-c3nnn[nH]3)nc(N3CCCC3)c2)cc1 [Example 131, N-(2-(2-(1H-tetrazol-5-yl)phenyl)-6-(pyrrolidin-1-yl)pyridin-4-yl)-2-(p-tolyl)acetamide]
520 nM | Cc1ccc(CC(=O)Nc2cc(-c3ccccc3-c3nnn[nH]3)nc(N3CCc4ccccc4C3)c2)cc1 [Example 132, N-(2-(2-(1H-tetrazol-5-yl)phenyl)-6-(3,4-dihydroisoquinolin-2(1H)-yl)pyridin-4-yl)-2-(p-tolyl)acetamide]
1240 nM | Cc1ccc(CC(=O)Nc2cc(-c3ccccc3-c3nnn[nH]3)nc(N3CCCC(C)(C)C3)c2)cc1 [Example 135, N-(2-(2-(1H-tetrazol-5-yl)phenyl)-6-(3,3-dimethylpiperidin-1-yl)pyridin-4-yl)-2-(p-tolyl)acetamide]
78 nM | Cc1cncc(Nc2cc(-c3ccccc3-c3nnn[nH]3)nc(N(Cc3ccccc3)CC(C)C)c2)n1 [Example 136, 6-(2-(1H-tetrazol-5-yl)phenyl)-N2-benzyl-N2-isobutyl-N4-(6-methylpyrazin-2-yl)pyridine-2,4-diamine]
48.7 nM | CC(C)CN(Cc1ccccc1)c1cc(Nc2cccc(CO)n2)cc(-c2ccccc2-c2nnn[nH]2)n1 [Example 137, (6-((2-(2-(1H-tetrazol-5-yl)phenyl)-6-(benzyl(isobutyl)amino)pyridin-4-yl)amino)pyridin-2-yl)methanol]
12 nM | CC(C)CN(Cc1ccccc1)c1cc(Nc2ccc3c(c2)OCO3)cc(-c2ccccc2-c2nnn[nH]2)n1 [Example 138, 6-(2-(1H-tetrazol-5-yl)phenyl)-N4-(benzo[d][1,3]dioxol-5-yl)-N2-benzyl-N2-isobutylpyridine-2,4-diamine]
23.4 nM | CC(C)CN(Cc1ccccc1)c1cc(Nc2ccncc2F)cc(-c2ccccc2-c2nnn[nH]2)n1 [Example 139, 6-(2-(1H-tetrazol-5-yl)phenyl)-N2-benzyl-N4-(3-fluoropyridin-4-yl)-N2-isobutylpyridine-2,4-diamine]
142 nM | Cc1nccc(Nc2cc(-c3ccccc3-c3nnn[nH]3)nc(N(Cc3ccccc3)CC(C)C)c2)n1 [Example 140, 6-(2-(1H-tetrazol-5-yl)phenyl)-N2-benzyl-N2-isobutyl-N4-(2-methylpyrimidin-4-yl)pyridine-2,4-diamine]
39.6 nM | CC(C)CN(Cc1ccccc1)c1cc(Nc2ncccn2)cc(-c2ccccc2-c2nnn[nH]2)n1 [Example 141, 6-(2-(1H-tetrazol-5-yl)phenyl)-N2-benzyl-N2-isobutyl-N4-(pyrimidin-2-yl)pyridine-2,4-diamine]
36.8 nM | Cc1ccc(Nc2cc(-c3ccccc3-c3nnn[nH]3)nc(N(Cc3ccccc3)CC(C)C)c2)nc1 [Example 142, 6-(2-(1H-tetrazol-5-yl)phenyl)-N2-benzyl-N2-isobutyl-N4-(5-methylpyridin-2-yl)pyridine-2,4-diamine]
665 nM | CC(C)CN(Cc1ccccc1)c1cc(Nc2ccc(C(N)=O)cc2)cc(-c2ccccc2-c2nnn[nH]2)n1 [Example 144, 4-((2-(2-(1H-tetrazol-5-yl)phenyl)-6-(benzyl(isobutyl)amino)pyridin-4-yl)amino)benzamide]
73.6 nM | Cc1ccnc(Nc2cc(-c3ccccc3-c3nnn[nH]3)nc(N(Cc3ccccc3)CC(C)C)c2)n1 [Example 145, 6-(2-(1H-tetrazol-5-yl)phenyl)-N2-benzyl-N2-isobutyl-N4-(4-methylpyrimidin-2-yl)pyridine-2,4-diamine]
7.3 nM | Cc1ccc(Nc2cc(-c3ccccc3-c3nnn[nH]3)nc(N(Cc3ccccc3)CC(C)C)c2)c(F)c1 [Example 147, 6-(2-(1H-tetrazol-5-yl)phenyl)-N2-benzyl-N4-(2-fluoro-4-methylphenyl)-N2-isobutylpyridine-2,4-diamine]
4.8 nM | Cc1ccc(Nc2cc(-c3ccccc3-c3nnn[nH]3)nc(N(Cc3ccccc3)CC(C)C)c2)cc1 [Example 148, 6-(2-(1H-tetrazol-5-yl)phenyl)-N2-benzyl-N2-isobutyl-N4-(p-tolyl)pyridine-2,4-diamine]
17.6 nM | CCCc1cnc(Nc2cc(-c3ccccc3-c3nnn[nH]3)nc(N(Cc3ccccc3)CC(C)C)c2)nc1 [Example 149, 6-(2-(1H-tetrazol-5-yl)phenyl)-N2-benzyl-N2-isobutyl-N4-(5-propylpyrimidin-2-yl)pyridine-2,4-diamine]
